Source: paper PMC6271079, “Amino Acid Derivatives of Ligustrazine-Oleanolic Acid as New Cytotoxic Agents” (Molecules, 2014)

Legend:
[1] = tested on: MDCK cells; test: MTT toxicity (nephrotoxicity) evaluation, MDCK; format: cell-based; conditions: 72 h, Madin-Darby canine kidney cells
Protocol: (§1) The cytotoxicity of these compounds was tested on five cells lines by the standard MTT assay. The human cancer cells lines (HepG2, HT-29, Hela, BGC-823) and MDCK cells were provided by the Chinese Academy of Medical Sciences Peking Union Medical College. The tumor cells were cultured in RPMI 1640 medium supplemented with 10% (v/v) fetal bovine serum and 1% (v/v) penicillin-streptomycin (Thermo Technologies, New York, NY, USA) at 37 °C in a humidified atmosphere with 5% CO2. The growing tumor cells at a density 3 × 10^3 cells/mL were exposed to various concentrations of the tested drugs and incubated in a 96-well microtiter plate for 72 h (37 °C, 5% CO2). After MTT solution (20 μL, 5 mg/mL) was added to each well, the plate was incubated for a further 4 h. Then the media was removed. Formazan crystals were dissolved with DMSO (150 μL). After mixing well, the absorbance was quantified at 490 nm with a BIORAD 550 spectrophotometer (Bio-rad Life Science Development Ltd., Beijing, China). Wells containing no drugs were used to be blanks. The IC50 values were defined as the concentration of compounds that produced a 50% reduction of surviving cells and calculated using the Logit-method. Tumor cell growth inhibitory rate was calculated in the following Equation (1): % inhibition = (1 − Sample group OD/Control group OD) × 100%(1)

[2] = tested on: BGC-823; test: MTT cytotoxicity assay, BGC-823; format: cell-based; conditions: human gastric cancer cells
Protocol: as §1

[3] = tested on: HT-29; test: MTT cytotoxicity assay, HT-29; format: cell-based; conditions: human colorectal cancer cells
Protocol: as §1

[4] = tested on: Hela; test: MTT cytotoxicity assay, Hela; format: cell-based, human; conditions: 72 h, cervical cancer cells
Protocol: as §1

[5] = tested on: HepG2; test: MTT cytotoxicity assay, HepG2; format: cell-based; conditions: human hepatoma cells
Protocol: as §1

[6] = tested on: HepG2, HT-29, Hela and BGC-823; test: MTT cytotoxicity, summary statements over the cell lines; format: cell-based, human; conditions: Homo sapiens, HepG2, HT-29, Hela and BGC-823, MTT; read-out: IC50, cytotoxicity on all four cancer cell lines
Protocol: as §1

[7] = MTT cytotoxicity, summary statements over the cell lines; format: cell-based, human; conditions: human (HepG2, HT-29, Hela, BGC-823); dog (MDCK), HepG2, HT-29, Hela, BGC-823 and MDCK cells, four cancer cell lines and MDCK, MTT; read-out: IC50, cytotoxicity on both cancer and MDCK cells
Protocol: as §1

[8] = tested on: HepG2 cells; test: DAPI staining, HepG2 nuclear changes; format: cell-based, human; conditions: 1, 2 and 4 μM, 72 h, 400×
Protocol: HepG2 cells in logarithmic growth phase were allowed to grow in 6-well plates for 24 h at 37 °C in a humidified atmosphere with 5% CO2. And each group was treated with different concentrations of compound 6a for 72 h. Cell culture medium was discarded and the cells were washed twice with PBS. The cells were fixed with 4% paraformaldehyde (pH 7.4) for 15 min and then washed twice with PBS. With an excitation wavelength of 470 nm, 4',6-diamidino-2-phenylindole (DAPI, 600 nM, Molecular Probes/Invitrogen Life Technologies, Carlsbad, CA, USA) staining was then performed for 2 min and nuclear fragments were observed using inverted phase-contrast microscope at a magnification of 400×.

[9] = logP by shake flask-ultraviolet spectrophotometry; format: physicochemical; conditions: n-caprylic alcohol-water (octanol/water); pH 6.8, n-caprylic alcohol-water, shake flask-UV; read-out: logP (octanol-water partition coefficient)
Source text: Lipophilicity (ClogP) is used in rational drug design as a key factor related to the cell transmembrane transport or other biological processes. ClogP values can either be calculated experimentally or predicted by means of commercially available programs. In this work, ClogP values of the TOA-amino acid derivatives were predicted using Sybyl-X 2.0 (Tripos, Certara Inc., St. Louis, MO, USA). […] To determine the octanol-water partition coefficient (logP), a shake flask-ultraviolet spectrophotometry method was used to determine the concentration of 6a and TOA in the water phase and organic phase at pH 6.8 with n-caprylic alcohol-water as the simulation system. […] However, the better activity connected with the increases of these amino acid conjugates’ solubility is worthy of further study.

[10] = tested on: MDCK cells; test: Giemsa staining, MDCK morphology; format: cell-based, canine; conditions: 2 μM, 72 h, 200×
Protocol: (§2) HepG2 cells in logarithmic growth phase were cultured in 6-well plates for 24 h at 37 °C in a humidified atmosphere with 5% CO2. And then each group was treated with different concentrations of compound 6a for 72 h. The cell culture medium was discarded. And the cells were washed twice with PBS, kept in PBS/ethanol (1:1) for 2 min, fixated in ethanol for 10 min. After removing the ethanol, the cells were stained with Giemsa stain for 2 min and observed under inverted phase-contrast microscope at a magnification of 400×. MDCK cells in logarithmic growth phase were cultured in 6-well plates for 24 h at 37 °C in a humidified atmosphere with 5% CO2. The cells were treated with 2 μM of compound 6a and CDDP for 72 h. The same operation was experimented as described above, and the cells were observed under inverted phase-contrast microscope at a magnification of 200×.

[11] = tested on: HepG2 cells; test: Giemsa staining, HepG2 morphology; format: cell-based, human; conditions: 1, 2 and 4 μM, 72 h, 400×
Protocol: as §2

| melting point | logP [9] | SMILES | IC50 ([1]; Canis lupus familiaris, MDCK) | IC50 ([2]; BGC-823, 72 h) | IC50 ([3]; HT-29, 72 h) | IC50 ([4]; Homo sapiens) | IC50 ([5]; HepG2, 72 h) | IC50 [6] | IC50 at 72 h [7] | Nuclear changes of HepG2 cells (DAPI staining) [8] | Morphological changes of MDCK cells (Giemsa staining) [10] | Morphological changes of HepG2 cells (Giemsa staining) [11] | IC50 [1] | IC50 ([2]; 72 h) | IC50 ([3]; 72 h) | IC50 [4] | IC50 ([5]; 72 h) |
| --- | --- | --- | --- | --- | --- | --- | --- | --- | --- | --- | --- | --- | --- | --- | --- | --- | --- |
| 107.1 to 108.5 °C |  | Cc1nc(C)c(COC(=O)[C@]23CCC(C)(C)CC2C2=CCC4[C@@]5(C)CC[C@H](OC(=O)[C@@H](N)CO)C(C)(C)C5CC[C@@]4(C)[C@]2(C)CC3)nc1C (stereo partly drawn) [Compound 6l, 3β-L-Serine ester olean-12-en-28-oic acid-3,5,6-trimethylpyrazin-2-methyl ester] | 3.12 µM | 4.9 µM | 4.83 µM | 5.22 µM | 4.78 µM | < 8 µM |  |  |  |  |  |  |  |  |  |
| 87.5 to 88.2 °C |  | Cc1nc(C)c(COC(=O)[C@]23CCC(C)(C)CC2C2=CCC4[C@@]5(C)CC[C@H](OC(=O)[C@@H](N)CCCCN)C(C)(C)C5CC[C@@]4(C)[C@]2(C)CC3)nc1C (stereo partly drawn) [Compound 6g, 3β-L-Lysine ester olean-12-en-28-oic acid-3,5,6-trimethylpyrazin-2-methyl ester] | 2.31 µM | 2.48 µM | 2.35 µM | 2.38 µM | 2.27 µM |  | < 2.5 µM |  |  |  |  |  |  |  |  |
| 89.6 to 91.3 °C |  | Cc1nc(C)c(COC(=O)[C@]23CCC(C)(C)CC2C2=CCC4[C@@]5(C)CC[C@H](OC(=O)[C@@H]6CCCN6)C(C)(C)C5CC[C@@]4(C)[C@]2(C)CC3)nc1C (stereo partly drawn) [Compound 6c, 3β-L-Proline ester olean-12-en-28-oic acid-3,5,6-trimethylpyrazin-2-methyl ester] | 5.03 µM | 4.98 µM | 3.21 µM | 6.75 µM | 2.39 µM | < 8 µM |  |  |  |  |  |  |  |  |  |
| 89.7 to 92.1 °C |  | Cc1nc(C)c(COC(=O)[C@]23CCC(C)(C)CC2C2=CCC4[C@@]5(C)CC[C@H](OC(=O)[C@H](C)N)C(C)(C)C5CC[C@@]4(C)[C@]2(C)CC3)nc1C (stereo partly drawn) [Compound 6b, 3β-L-Alanine ester olean-12-en-28-oic acid-3,5,6-trimethylpyrazin-2-methyl ester] | 5.12 µM | 4.47 µM | 4.77 µM | 7.69 µM | 2.32 µM | < 8 µM |  |  |  |  |  |  |  |  |  |
|  | 4.3 | Cc1nc(C)c(COC(=O)[C@]23CCC(C)(C)CC2C2=CCC4[C@@]5(C)CC[C@H](OC(=O)CN)C(C)(C)C5CC[C@@]4(C)[C@]2(C)CC3)nc1C (stereo partly drawn) [Compound 6a, 3β-Glycine ester olean-12-en-28-oic acid-3,5,6-trimethylpyrazin-2-methyl ester] | 4.88 µM | 3.06 µM | 2.5 µM | 3.26 µM | 2 µM |  |  | condensed chromatin, nuclear fragmentation and weak fluorescence | no significant morphological changes | loss of intercellular contacts, lysis of nuclei, increased cell debris and membrane damage |  |  |  |  |  |
| 82.4 to 83.8 °C |  | Cc1nc(C)c(COC(=O)[C@]23CCC(C)(C)CC2C2=CCC4[C@@]5(C)CC[C@H](OC(=O)[C@@H](N)Cc6ccccc6)C(C)(C)C5CC[C@@]4(C)[C@]2(C)CC3)nc1C (stereo partly drawn) [Compound 6h, 3β-L-Phenylalanine ester olean-12-en-28-oic acid-3,5,6-trimethylpyrazin-2-methyl ester] | 8.12 µM | > 25 µM | 9.5 µM | > 25 µM | 8.22 µM |  |  |  |  |  |  |  |  |  |  |
| 89.5 to 91 °C |  | Cc1nc(C)c(COC(=O)[C@]23CCC(C)(C)CC2C2=CCC4[C@@]5(C)CC[C@H](OC(=O)[C@@H](N)C(C)C)C(C)(C)C5CC[C@@]4(C)[C@]2(C)CC3)nc1C (stereo partly drawn) [Compound 6f, 3β-L-Valine ester olean-12-en-28-oic acid-3,5,6-trimethylpyrazin-2-methyl ester] | 9.79 µM | 9.52 µM | 5.96 µM | > 25 µM | 4.26 µM |  |  |  |  |  |  |  |  |  |  |
| 89.6 to 91.6 °C |  | Cc1nc(C)c(COC(=O)[C@]23CCC(C)(C)CC2C2=CCC4[C@@]5(C)CC[C@H](OC(=O)[C@@H](N)CC(C)C)C(C)(C)C5CC[C@@]4(C)[C@]2(C)CC3)nc1C (stereo partly drawn) [Compound 6d, 3β-L-Leucine ester olean-12-en-28-oic acid-3,5,6-trimethylpyrazin-2-methyl ester] | > 25 µM | > 25 µM | > 25 µM | > 25 µM | > 25 µM |  |  |  |  |  |  |  |  |  |  |
| 206.9 to 207.7 °C |  | Cc1nc(C)c(COC(=O)[C@]23CCC(C)(C)CC2C2=CCC4[C@@]5(C)CC[C@H](OC(=O)[C@@H](N)Cc6c[nH]c7ccccc67)C(C)(C)C5CC[C@@]4(C)[C@]2(C)CC3)nc1C (stereo partly drawn) [Compound 6k, 3β-L-Tryptophan ester olean-12-en-28-oic acid-3,5,6-trimethylpyrazin-2-methyl ester] | 10.8 µM | 10 µM | > 25 µM | > 25 µM | 11.4 µM |  |  |  |  |  |  |  |  |  |  |
|  |  | [NH2][Pt]([NH2])([Cl])[Cl] [CDDP, cisplatin, reference compound] |  |  |  |  |  |  |  |  | less density, larger volume, lighter nuclear staining and cellular atypia |  | 3.69 µM | 6.82 µM | 6.11 µM | 9.84 µM | 2.86 µM |
| 89.8 to 90.7 °C |  | CC[C@H](C)[C@H](N)C(=O)O[C@H]1CC[C@@]2(C)C(CC[C@]3(C)C2CC=C2C4CC(C)(C)CC[C@]4(C(=O)OCc4nc(C)c(C)nc4C)CC[C@]23C)C1(C)C (stereo partly drawn) [Compound 6e, 3β-L-Isoleucine ester olean-12-en-28-oic acid-3,5,6-trimethylpyrazin-2-methyl ester] | > 25 µM | > 25 µM | 9.83 µM | > 25 µM | 5.97 µM |  |  |  |  |  |  |  |  |  |  |
| 124.6 to 125.8 °C |  | Cc1nc(C)c(COC(=O)[C@]23CCC(C)(C)CC2C2=CCC4[C@@]5(C)CC[C@H](OC(=O)[C@@H]6CCC(=O)N6)C(C)(C)C5CC[C@@]4(C)[C@]2(C)CC3)nc1C (stereo partly drawn) [Compound 6j, 3β-L-Pyroglutamate ester olean-12-en-28-oic acid-3,5,6-trimethylpyrazin-2-methyl ester] |  |  |  |  |  |  |  |  |  |  |  |  |  |  |  |
| 81.9 to 82.5 °C |  | CNCC(=O)O[C@H]1CC[C@@]2(C)C(CC[C@]3(C)C2CC=C2C4CC(C)(C)CC[C@]4(C(=O)OCc4nc(C)c(C)nc4C)CC[C@]23C)C1(C)C (stereo partly drawn) [Compound 6i, 3β-L-Sarcosine ester olean-12-en-28-oic acid-3,5,6-trimethylpyrazin-2-methyl ester] | 15.8 µM | 16 µM | 16.9 µM | 12.6 µM | 10.2 µM |  |  |  |  |  |  |  |  |  |  |
